Data published in PMC10762035, “Molecular basis of human trace amine-associated receptor 1 activation” (Nature Communications, 2024).
Substitutions are numbered along the chain they refer to. Values joined by “and” are separate entries in the source; they are usually repeats but may differ in a detail not shown here. Identical values can stand only once. Like-named read-outs stand apart in the source and are kept apart here.

Legend:
Format in all cases: cell-based
hTA1 I290N = molecular target: T1, hTA1 I290N (Homo sapiens, UniProt Q96RJ0, I290N); assay: GloSensor cAMP accumulation assay, I290N mutant; conditions: for cAMP accumulation response, single replicate values (source data, Supplementary Figure 5): hTA1 I290N (N=2), log[Compound], M = -5;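 on all read-outs here: cells transiently co-expressing hTA1 and the GloSensor cAMP biosensor, luminescence read 30 min after compound addition at room temperature, efficacy scaled to the maximal β-PEA response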
T1 construct: expressed in transfected cells; host or cells: HEK293T
T1 sequence (Q96RJ0 1-339 I290N): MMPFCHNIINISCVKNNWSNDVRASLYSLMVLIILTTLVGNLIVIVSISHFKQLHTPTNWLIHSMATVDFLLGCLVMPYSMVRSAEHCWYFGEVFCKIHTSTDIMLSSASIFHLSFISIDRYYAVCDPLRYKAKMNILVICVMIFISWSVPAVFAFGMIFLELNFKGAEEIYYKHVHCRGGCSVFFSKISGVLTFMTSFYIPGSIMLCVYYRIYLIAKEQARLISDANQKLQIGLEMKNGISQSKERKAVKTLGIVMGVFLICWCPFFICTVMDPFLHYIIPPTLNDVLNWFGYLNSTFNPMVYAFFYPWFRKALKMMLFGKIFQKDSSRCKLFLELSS

hTA1 T271A = molecular target: T2, hTA1 T271A (Homo sapiens, UniProt Q96RJ0, T271A); assay: GloSensor cAMP accumulation assay, T271A mutant
T2 construct: expressed in transfected cells; host or cells: HEK293T
T2 sequence (Q96RJ0 1-339 T271A): T1 sequence (Q96RJ0 1-339 I290N) with T271A, N290I

hTA1 W264F = molecular target: T3, hTA1 W264F (Homo sapiens, UniProt Q96RJ0, W264F); assay: GloSensor cAMP accumulation assay, W264F mutant;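 further: cells transiently transfected with receptor plus GloSensor, luminescence read 30 min after agonist addition at room temperature, concentration-response curves fitted by log(agonist) vs response regression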
T3 construct: expressed in transfected cells; host or cells: HEK293T
T3 sequence (Q96RJ0 1-339 W264F): T1 sequence (Q96RJ0 1-339 I290N) with W264F, N290I

hTA1 F195T = molecular target: T4, hTA1 F195T (Homo sapiens, UniProt Q96RJ0, F195T); assay: GloSensor cAMP accumulation assay, F195T mutant;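 further: cells transiently co-expressing HA-FLAG-tagged hTA1 and the GloSensor cAMP biosensor, luminescence read 30 min after agonist addition at room temperature, concentration-response fitted by nonlinear regression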
T4 construct: expressed in transfected cells; host or cells: HEK293T
T4 sequence (Q96RJ0 1-339 F195T): T1 sequence (Q96RJ0 1-339 I290N) with F195T, N290I

hTA1 C96S = molecular target: T5, hTA1 C96S (Homo sapiens, UniProt Q96RJ0, C96S); assay: GloSensor cAMP accumulation assay, C96S mutant; conditions: log[Compound]
T5 construct: expressed in transfected cells; host or cells: HEK293T
T5 sequence (Q96RJ0 1-339 C96S): T1 sequence (Q96RJ0 1-339 I290N) with C96S, N290I

[1] = I290N, n=2, read-out: Span ± SEM (Emax normalized to β-PEA)
[2] = hTA1 I290N mutant, β-PEA set to 100, each grid row a separate experiment, 3 replicates
[3] = hTA1 I290N mutant, β-PEA set to 100, each grid row a separate experiment, 3 replicates, read-out: Emax values (Mean)
[4] = T271A mutant, Figure 5B, β-PEA = 100, each row one independent experiment (3 replicates)
[5] = T271A, n=2, read-out: Span ± SEM (Emax normalized to β-PEA)
[6] = W246F mutant (so in the source) minus WT average
[7] = W246F mutant (so in the source), β-PEA = 100, each line an independent experiment, 3 replicates
[8] = W246F mutant (so in the source), β-PEA = 100, each line an independent experiment, 3 replicates, read-out: Emax values (Mean)
[9] = W264F, n=2, read-out: Span ± SEM (Emax normalized to β-PEA)
[10] = F195T mutant, Figure 5B, β-PEA = 100, each row one independent experiment (3 replicates)
[11] = F195T, n=2, read-out: Span ± SEM (Emax normalized to β-PEA)
[12] = C96S, M = -5, single replicates (N=2)
[13] = C96S, M = -5.522, single replicates (N=2)
[14] = C96S, M = -6, single replicates (N=2)
[15] = C96S, M = -6.522, single replicates (N=2)
[16] = C96S, M = -7, single replicates (N=2)
[17] = C96S, M = -7.522, single replicates (N=2)
[18] = C96S, M = -8, single replicates (N=2)
[19] = C96S, M = -8.522, single replicates (N=2)
[20] = C96S, M = -9, single replicates (N=2)
[21] = C96S, M = -9.522, single replicates (N=2)
[22] = C96S, M = -10, single replicates (N=2)
[23] = C96S, M = -10.522, single replicates (N=2)
[24] = C96S, M = -11, single replicates (N=2)
[25] = C96S, M = -11.522, single replicates (N=2)
[26] = M = -11.522, single replicates, mutant block above C178S
[27] = M = -12, single replicates, mutant block above C178S
[28] = M = -12.522, single replicates, mutant block above C178S

## NCCc1ccc(O)cc1 [TYR, tyramine]
hTA1 I290N; I290N, n=2, read-out: EC50
  EC50: 0.492 µM
hTA1 I290N; [1]
  Emax: 99.42 ± 0.19%
hTA1 I290N
  cAMP accumulation response, single replicate values (source data, Supplementary Figure 5): 84.4195 and 103.709 and 90.7072 and 91.6949
hTA1 I290N; hTA1 I290N mutant minus WT average
  ΔpEC50 values (each mutant value - WT average), Mean: -0.07565 and -0.07195
hTA1 I290N; hTA1 I290N mutant, Figure 3B source data, each grid row a separate experiment, 3 replicates, read-out: pEC50 values (Mean) (converted)
  EC50: 0.494 µM and 0.49 µM
hTA1 I290N; [2]
  Emax values, Mean: 99.2249
hTA1 I290N; [3]
  Emax: 99.6%
hTA1 T271A; T271A
  reduction in potency vs wild type: about 10 fold
hTA1 T271A; T271A mutant, Figure 5B, each row one independent experiment (3 replicates), read-out: pEC50 values, Mean (converted)
  EC50: 7.63 µM and 3.08 µM
hTA1 T271A; [4]
  Emax values, Mean: 138.16 and 109.079
hTA1 T271A; T271A, n=2, read-out: EC50
  EC50: 4.85 µM
hTA1 T271A; [5]
  Emax: 124%
hTA1 W264F; [6]
  ΔEmax values (each mutant value - WT average): 2.816
  ΔpEC50 values (each mutant value - WT average): -1.54 and -1.2519
hTA1 W264F; W246F mutant (so in the source), each line an independent experiment, 3 replicates, read-out: pEC50 values (Mean) (converted)
  EC50: 14.4 µM and 7.41 µM
hTA1 W264F; [7]
  Emax values, Mean: 99.2183
hTA1 W264F; [8]
  Emax: 102%
hTA1 W264F; W264F, n=2, read-out: EC50
  EC50: 10.3 µM
hTA1 W264F; [9]
  Emax: 101 ± 1.29%
hTA1 F195T; F195T
  increase in potency vs wild type: 26 fold
hTA1 F195T; F195T mutant, Figure 5B, each row one independent experiment (3 replicates), read-out: pEC50 values, Mean (converted)
  EC50: 0.0102 µM and 0.0246 µM
hTA1 F195T; [10]
  Emax values, Mean: 119.677 and 98.2455
hTA1 F195T; F195T, n=2, read-out: EC50
  EC50: 0.00634 µM
hTA1 F195T; [11]
  Emax: 109%
hTA1 C96S; [12]
  Normalized Luminescence Counts: 1.4045 and 3.382 and -0.5726 and -0.7614 and 6.985 and 24.4145
hTA1 C96S; [13]
  Normalized Luminescence Counts: 0.08646 and 2.064 and -0.5726 and 5.048 (2×) and 10.8582
hTA1 C96S; [14]
  Normalized Luminescence Counts: -1.891 and 1.4045 and -2.55 and -0.7614 and 5.048 and -8.508
hTA1 C96S; [15]
  Normalized Luminescence Counts: -0.5726 and -3.209 and -2.55 and -6.571 (2×) and -2.698
hTA1 C96S; [16]
  Normalized Luminescence Counts: 0.08646 and 0.7455 and -2.55 and -0.7614 and -4.6346 and -2.698
hTA1 C96S; [17]
  Normalized Luminescence Counts: -1.232 and -0.5726 and 0.7455 and 1.175 and -2.698 and 3.112
hTA1 C96S; [18]
  Normalized Luminescence Counts: 2.064 and 0.7455 and -0.5726 and 3.112 and 24.4145 and -12.381
hTA1 C96S; [19]
  Normalized Luminescence Counts: -1.891 and 0.08646 and -1.232 and 6.985 and 10.8582 and 12.7948
hTA1 C96S; [20]
  Normalized Luminescence Counts: -1.232 and -0.5726 and -1.891 and 1.175 and -4.6346 and 6.985
hTA1 C96S; [21]
  Normalized Luminescence Counts: -3.209 and -0.5726 and -3.868 and 8.922 and 55.4002 and 6.985
hTA1 C96S; [22]
  Normalized Luminescence Counts: -1.232 and 0.08646 (2×) and 5.048 and 3.112 and 12.7948
hTA1 C96S; [23]
  Normalized Luminescence Counts: -0.5726 and 2.064 and 0.08646 and 6.985 and -4.6346 and -0.7614
hTA1 C96S; [24]
  Normalized Luminescence Counts: 0.7455 and 2.723 and -1.232 and 3.112 (2×) and 10.8582
hTA1 C96S; [25]
  Normalized Luminescence Counts: -0.5726 and 3.382 and -2.55 and -8.508
hTA1 C96S; [26]
  Normalized Luminescence Counts: -0.1784 and -0.1556 and -0.3377 and 0.3752 and 3.634 and 2.245
hTA1 C96S; [27]
  Normalized Luminescence Counts: 0.04925 and -0.1556 and -0.3149 and 0.2684 and 2.352 and 1.711
hTA1 C96S; [28]
  Normalized Luminescence Counts: -0.4515 and -0.588 and -0.5653 and 1.283 and 1.3903 and 1.07

## CCc1[nH]nc(C(=O)Nc2ccc([C@H]3CNCCO3)cc2)c1C [ralmitaront]
hTA1 I290N; [1]
  Emax: 43.6 ± 5.35%
hTA1 I290N
  cAMP accumulation response, single replicate values (source data, Supplementary Figure 5): 44.9736 and 36.855 and 39.1073 and 50.4588
hTA1 I290N; [2]
  Emax values, Mean: 38.2871
hTA1 I290N; [3]
  Emax: 49%
hTA1 T271A; T271A mutant minus WT average, Figure 5B
  ΔpEC50 values (each mutant value - WT average), Mean: -0.01384
hTA1 T271A; [4]
  Emax values, Mean: 56.995
hTA1 T271A; T271A mutant, Figure 5B, β-PEA = 100, each row one independent experiment (3 replicates), read-out: Emax values, Mean
  Emax: 65.2%
hTA1 T271A; [5]
  Emax: 61.1 ± 4.08%
hTA1 W264F; [6]
  ΔEmax values (each mutant value - WT average): -7.264
hTA1 W264F; [7]
  Emax values, Mean: 47.4013
hTA1 W264F; [8]
  Emax: 32.8%
hTA1 W264F; [9]
  Emax: 40.1 ± 7.28%
hTA1 F195T; F195T mutant minus WT average, Figure 5B
  ΔpEC50 values (each mutant value - WT average), Mean: 0.04071 and 0.07112
hTA1 F195T; [10]
  Emax values, Mean: 86.6537
hTA1 F195T; F195T mutant, Figure 5B, β-PEA = 100, each row one independent experiment (3 replicates), read-out: Emax values, Mean
  Emax: 67.7%
hTA1 F195T; [11]
  Emax: 77.2 ± 9.48%
hTA1 C96S; [12]
  Normalized Luminescence Counts: 1.4045 and -2.55 and -5.186 and -2.698 and 26.3511 and -6.571
hTA1 C96S; [13]
  Normalized Luminescence Counts: -3.209 and -4.527 and -5.845 and -4.6346 and 8.922 and -0.7614
hTA1 C96S; [14]
  Normalized Luminescence Counts: -3.209 and -2.55 and -5.186 and 8.922 and 1.175 and 18.6047
hTA1 C96S; [15]
  Normalized Luminescence Counts: -5.186 (2×) and -3.209 and -6.571 and -12.381 and 39.9073
hTA1 C96S; [16]
  Normalized Luminescence Counts: -5.845 and -1.232 and -3.868 and 3.112 and -12.381 and 8.922
hTA1 C96S; [17]
  Normalized Luminescence Counts: -5.845 and -2.55 and -6.504 and 10.8582 (2×) and -6.571
hTA1 C96S; [18]
  Normalized Luminescence Counts: -1.232 and -0.5726 and -2.55 and 20.5413 and -0.7614 and 37.9707
hTA1 C96S; [19]
  Normalized Luminescence Counts: -1.891 (2×) and -3.209 and -0.7614 (2×) and 14.7315
hTA1 C96S; [20]
  Normalized Luminescence Counts: -3.209 and -0.5726 and -2.55 and 6.985 and 8.922 and 5.048
hTA1 C96S; [21]
  Normalized Luminescence Counts: -3.209 and -3.868 and -1.232 and 24.4145 and 3.112 and -8.508
hTA1 C96S; [22]
  Normalized Luminescence Counts: -3.868 and -0.5726 and -1.232 and -0.7614 and -16.2542 (2×)
hTA1 C96S; [23]
  Normalized Luminescence Counts: -2.55 (2×) and -1.232 and -6.571 and -22.0641 and -10.4444
hTA1 C96S; [24]
  Normalized Luminescence Counts: 0.7455 and 2.064 and -1.232 and 20.5413 and -12.381 and -10.4444
hTA1 C96S; [25]
  Normalized Luminescence Counts: 0.7455 and 3.382 and 1.4045 and 16.6681
hTA1 C96S; [26]
  Normalized Luminescence Counts: -0.2239 and -0.1784 and -0.4742 and 3.153 and 1.07 and 2.833
hTA1 C96S; [27]
  Normalized Luminescence Counts: -0.6336 and -0.2466 and -0.7474 and 2.192 and 1.657 and 3.26
hTA1 C96S; [28]
  Normalized Luminescence Counts: -0.7701 (2×) and -0.4515 and 1.764 and 0.7492 and 1.497
